Measurements: US20260297080A1, “BICYCLIC COMPOUNDS AS CDK INHIBITORS” (BeOne Medicines I GmbH, priority 2022, published 2026)

Experiments:
CDK2/Cyclin E1 = CDK2/Cyclin E1 (Homo sapiens, UniProt P24941); test: CDK2/Cyclin E1 Biochemical Assay (TR-FRET), 0.060 mM ATP; settings: 0.15 μM Rb (Ser780)-biotin substrate, pH7.0, 60 min preincubation, 120 min reaction, room temperature
In short: (§1)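 Enzyme + cpd (0–10 μM), 60 min RT; add ATP + 0.15 μM Rb(Ser780)-biotin, 120 min RT; 50 mM HEPES pH 7.0, 50 mM MgCl2, 1 mM DTT, 0.1 mM orthovanadate. Stop/detect with Eu anti-pRb + SA-XL665, 60 min; ratio 665/620 nm; IC50 by 4PL fit.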

CDK1/Cyclin B1 = CDK1/Cyclin B1 (Homo sapiens, UniProt P06493); test: CDK1/Cyclin B1 Biochemical Assay (TR-FRET), 0.015 mM ATP; settings: 0.15 μM Rb (Ser780)-biotin substrate, pH7.0, 60 min preincubation, 120 min reaction, room temperature
Chain of CDK1/Cyclin B1 (P06493 whole entry): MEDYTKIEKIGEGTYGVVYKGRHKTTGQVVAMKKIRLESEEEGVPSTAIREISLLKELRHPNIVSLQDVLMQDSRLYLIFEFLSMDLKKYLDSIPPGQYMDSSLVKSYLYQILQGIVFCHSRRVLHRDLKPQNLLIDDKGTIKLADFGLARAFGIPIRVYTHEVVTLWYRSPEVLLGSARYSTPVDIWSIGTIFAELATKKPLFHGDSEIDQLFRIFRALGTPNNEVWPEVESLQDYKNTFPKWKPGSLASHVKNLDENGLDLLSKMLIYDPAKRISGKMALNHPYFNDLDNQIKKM
Chain of CDK1/Cyclin B1 (P14635 whole entry partner): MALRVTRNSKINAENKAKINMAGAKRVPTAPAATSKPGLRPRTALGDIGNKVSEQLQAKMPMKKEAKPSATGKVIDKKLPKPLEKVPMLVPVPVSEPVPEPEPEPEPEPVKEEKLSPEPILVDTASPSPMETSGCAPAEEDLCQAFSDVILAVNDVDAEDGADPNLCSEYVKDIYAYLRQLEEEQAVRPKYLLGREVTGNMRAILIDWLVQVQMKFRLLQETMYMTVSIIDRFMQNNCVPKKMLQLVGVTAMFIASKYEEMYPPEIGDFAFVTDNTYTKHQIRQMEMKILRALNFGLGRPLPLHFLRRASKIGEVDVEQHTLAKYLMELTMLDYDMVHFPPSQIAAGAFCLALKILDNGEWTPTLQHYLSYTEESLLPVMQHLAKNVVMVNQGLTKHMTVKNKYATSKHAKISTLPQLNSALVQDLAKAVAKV
In short: as §1

| SMILES | IC50 (CDK2/Cyclin E1) | IC50 (CDK1/Cyclin B1) |
| --- | --- | --- |
| CC(C)NC(=O)O[C@H]1CC[C@@H](c2cc(Nc3ccc4c(c3)CS(=O)(=O)N4CC3CCC3)n[nH]2)C1 (relative stereo) [Example 211, cis-3-(3-((1-(cyclobutylmethyl)-2,2-dioxido-1,3-dihydrobenzo[c]isothiazol-5-yl)amino)-1H-pyrazol-5-yl)cyclopentyl isopropylcarbamate] | 0.0084 µM | 0.197 µM |
| O=C(NC1(CO)CCC1)O[C@H]1CC[C@@H](c2cc(Nc3cc4c(cc3F)NS(=O)(=O)C4)n[nH]2)C1 (relative stereo) [Example 408, cis-3-(3-((6-fluoro-2,2-dioxido-1,3-dihydrobenzo[c]isothiazol-5-yl)amino)-1H-pyrazol-5-yl)cyclopentyl(1-(hydroxymethyl)cyclobutyl)carbamate] | 0.035 µM | 1.1 µM |
| C[C@@H](CO)NC(=O)O[C@H]1CC[C@@H](c2cc(Nc3ccc4c(c3F)CN(C3CC3)S4(=O)=O)n[nH]2)C1 (relative stereo) [Example 120, cis-3-(3-((2-cyclopropyl-4-fluoro-1,1-dioxido-2,3-dihydrobenzo[d]isothiazol-5-yl)amino)-1H-pyrazol-5-yl)cyclopentyl((S)-1-hydroxypropan-2-yl)carbamate] | 0.032 µM | 0.773 µM |
| CC(C)NC(=O)O[C@H]1CC[C@@H](c2cc(Nc3ccc4c(c3F)CN(CCC3CCOCC3)S4(=O)=O)n[nH]2)C1 (relative stereo) [Example 114, cis-3-(3-((4-fluoro-1,1-dioxido-2-(2-(tetrahydro-2H-pyran-4-yl)ethyl)-2,3-dihydrobenzo[d]isothiazol-5-yl)amino)-1H-pyrazol-5-yl)cyclopentyl isopropylcarbamate] | 0.0096 µM | 0.596 µM |
| CC(C)NC(=O)O[C@H]1CC[C@@H](c2cc(Nc3ccc4c(c3F)CS(=O)(=O)N4)n[nH]2)C1 (racemic) [Example 251, cis-3-(3-((4-fluoro-2,2-dioxido-1,3-dihydrobenzo[c]isothiazol-5-yl)amino)-1H-pyrazol-5-yl)cyclopentyl isopropylcarbamate] | 0.0004 µM | 0.025 µM |
| [2H]C([2H])([2H])N1c2c(F)cc(Nc3cc([C@@H]4CC[C@H](OC(=O)NC5(C)CC5)C4)[nH]n3)cc2CS1(=O)=O (single isomer, unassigned) [Example 291a, cis-3-(3-((7-fluoro-1-(methyl-d3)-2,2-dioxido-1,3-dihydrobenzo[c]isothiazol-5-yl)amino)-1H-pyrazol-5-yl)cyclopentyl(1-methylcyclopropyl)carbamate] | 0.002 µM | 0.076 µM |
| CC[C@H](C)NC(=O)O[C@H]1CC[C@@H](c2cc(Nc3ccc4c(c3F)C(C)NS4(=O)=O)n[nH]2)C1 (single isomer, unassigned) [Example 54c] | 0.0003 µM | 0.04 µM |
| [2H]C([2H])([2H])N1c2c(F)cc(Nc3cc([C@@H]4CC[C@H](OC(=O)N[C@@H](C)CC)C4)[nH]n3)cc2CS1(=O)=O (relative stereo) [Example 285, cis-3-(3-((7-fluoro-1-(methyl-d3)-2,2-dioxido-1,3-dihydrobenzo[c]isothiazol-5-yl)amino)-1H-pyrazol-5-yl)cyclopentyl((S)-sec-butyl)carbamate] | 0.012 µM | 0.196 µM |
| COc1cc2c(cc1Nc1cc([C@@H]3CC[C@H](OC(=O)NC(C)C)C3)[nH]n1)S(=O)(=O)NC2(C)C (relative stereo) [Example 183, cis-3-(3-((5-methoxy-3,3-dimethyl-1,1-dioxido-2,3-dihydrobenzo[d]isothiazol-6-yl)amino)-1H-pyrazol-5-yl)cyclopentyl isopropylcarbamate] | 1.39 µM | 7.57 µM |
| C[C@@H](CO)NC(=O)O[C@H]1CC[C@@H](c2cc(Nc3ccc4c(c3F)CS(=O)(=O)N4C)n[nH]2)C1 (relative stereo) [Example 348, cis-3-(3-((4-fluoro-1-methyl-2,2-dioxido-1,3-dihydrobenzo[c]isothiazol-5-yl)amino)-1H-pyrazol-5-yl)cyclopentyl((S)-1-hydroxypropan-2-yl)carbamate] | 0.022 µM | 0.635 µM |
| CC(C)NC(=O)O[C@H]1CC[C@@H](c2cc(Nc3ccc4c(c3)CS(=O)(=O)N4C3CC3)n[nH]2)C1 (relative stereo) [Example 203, cis-3-(3-((1-cyclopropyl-2,2-dioxido-1,3-dihydrobenzo[c]isothiazol-5-yl)amino)-1H-pyrazol-5-yl)cyclopentyl isopropylcarbamate] | 0.0054 µM | 0.041 µM |
| C[C@@H](CO)NC(=O)O[C@H]1CC[C@@H](c2cc(Nc3ccc4c(c3F)CN(C)S4(=O)=O)n[nH]2)C1 (relative stereo) [Example 351, cis-3-(3-((4-fluoro-2-methyl-1,1-dioxido-2,3-dihydrobenzo[d]isothiazol-5-yl)amino)-1H-pyrazol-5-yl)cyclopentyl((S)-1-hydroxypropan-2-yl)carbamate] | 0.04 µM | 0.658 µM |
| CC(C)NC(=O)O[C@H]1CC[C@@H](c2cc(Nc3ccc4c(c3)NS(=O)(=O)C4(C)C)n[nH]2)C1 (relative stereo) [Example 304, cis-3-(3-((3,3-dimethyl-2,2-dioxido-1,3-dihydrobenzo[c]isothiazol-6-yl)amino)-1H-pyrazol-5-yl)cyclopentyl isopropylcarbamate] | 0.029 µM | 0.251 µM |
| CC(C)NC(=O)O[C@@H]1CC[C@H](c2cc(Nc3ccc4c(c3)S(=O)(=O)CN4C(=O)OC(C)(C)C)n[nH]2)C1 (relative stereo) [Example 318, cis-tert-butyl 6-((5-(3-((isopropylcarbamoyl)oxy)cyclopentyl)-1H-pyrazol-3-yl)amino)benzo[d]thiazole-3 (2H)-carboxylate 1,1-dioxide] | 0.257 µM | 1.75 µM |
| CC(C)NC(=O)O[C@H]1CC[C@@H](c2cc(Nc3ccc4c(c3)C(C)NS4(=O)=O)n[nH]2)C1 (single isomer, unassigned) [Example 321d, cis-3-(3-((3-methyl-1,1-dioxido-2,3-dihydrobenzo[d]isothiazol-5-yl)amino)-1H-pyrazol-5-yl)cyclopentyl isopropylcarbamate] | 0.0006 µM | 0.0054 µM |
| CC(C)NC(=O)O[C@H]1CC[C@@H](c2cc(Nc3ccc4c(c3)NS(=O)(=O)C4)n[nH]2)C1 (stereo in doubt) [Example 303b, cis-3-(3-((2,2-dioxido-1,3-dihydrobenzo[c]isothiazol-6-yl)amino)-1H-pyrazol-5-yl)cyclopentyl isopropylcarbamate] | 0.002 µM | 0.028 µM |
| COCC(C)(C)NC(=O)O[C@H]1CC[C@@H](c2cc(Nc3ccc4c(c3F)CN(C3CC3)S4(=O)=O)n[nH]2)C1 (relative stereo) [Example 371, cis-3-(3-((2-cyclopropyl-4-fluoro-1,1-dioxido-2,3-dihydrobenzo[d]isothiazol-5-yl)amino)-1H-pyrazol-5-yl)cyclopentyl(1-methoxy-2-methylpropan-2-yl)carbamate] | 0.0035 µM | 0.265 µM |
| CC1(NC(=O)O[C@H]2CC[C@@H](c3cc(Nc4ccc5c(c4F)CNS5(=O)=O)n[nH]3)C2)COC1 (racemic) [Example 164, cis-3-(3-((4-fluoro-1,1-dioxido-2,3-dihydrobenzo[d]isothiazol-5-yl)amino)-1H-pyrazol-5-yl)cyclopentyl(3-methyloxetan-3-yl)carbamate] | 0.005 µM | 0.294 µM |
| Cc1nc2c(cc1Nc1cc([C@@H]3CC[C@H](OC(=O)NC(C)C)C3)[nH]n1)CNS2(=O)=O (relative stereo) [Example 396, cis-3-(3-((6-methyl-1,1-dioxido-2,3-dihydroisothiazolo[5,4-b]pyridin-5-yl)amino)-1H-pyrazol-5-yl)cyclopentyl isopropylcarbamate] | 0.0097 µM | 0.76 µM |
| Cc1cc2c(cc1Nc1cc([C@@H]3CC[C@H](OC(=O)NC(C)C)C3)[nH]n1)CS(=O)(=O)N2 (relative stereo) [Example 241, 3-(3-((6-methyl-2,2-dioxido-1,3-dihydrobenzo[c]isothiazol-5-yl)amino)-1H-pyrazol-5-yl)cyclopentyl isopropylcarbamate] | 0.128 µM | 4.47 µM |
| CC[C@H](C)NC(=O)O[C@H]1CC[C@@H](c2cc(Nc3ccc4c(c3F)C(C)NS4(=O)=O)n[nH]2)C1 (single isomer, unassigned) [Example 54b] | 0.0027 µM | 0.564 µM |
| [2H]C([2H])([2H])N1Cc2c(ccc(Nc3cc([C@@H]4CC[C@H](OC(=O)N[C@@H](C)CC)C4)[nH]n3)c2F)S1(=O)=O (relative stereo) [Example 131, cis-3-(3-((4-fluoro-2-(methyl-d3)-1,1-dioxido-2,3-dihydrobenzo[d]isothiazol-5-yl)amino)-1H-pyrazol-5-yl)cyclopentyl((S)-sec-butyl)carbamate] | 0.0014 µM | 0.152 µM |
| CC(C)(CO)NC(=O)O[C@H]1CC[C@@H](c2cc(Nc3ccc4c(c3F)CNS4(=O)=O)n[nH]2)C1 (relative stereo) [Example 329, cis-3-(3-((4-fluoro-1,1-dioxido-2,3-dihydrobenzo[d]isothiazol-5-yl)amino)-1H-pyrazol-5-yl)cyclopentyl(1-hydroxy-2-methylpropan-2-yl)carbamate] | 0.0027 µM | 0.175 µM |
| CN1c2ccc(Nc3cc([C@@H]4CC[C@H](OC(=O)NC(C)(C)CO)C4)[nH]n3)c(F)c2CS1(=O)=O (single isomer, unassigned) [Example 327b, cis-3-(3-((4-fluoro-1-methyl-2,2-dioxido-1,3-dihydrobenzo[c]isothiazol-5-yl)amino)-1H-pyrazol-5-yl)cyclopentyl(1-hydroxy-2-methylpropan-2-yl)carbamate] | 0.0017 µM | 0.056 µM |
